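48-hour exposure; five concentrations; linearly interpolated endpoints. Here, GI50 denotes the concentration required for 50% inhibition of growth.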 Active and inactive are the calls of the source. No stated cut-off is given here; in the data, active = GI50 up to about 1.1 µM and inactive = higher.
Legend:
Assay in all cases: NCI anticancer screen, dose series, 48 h
A549 = test system: A549
COLO 205 = test system: COLO 205
DU-145 = test system: DU-145
HCT-15 = test system: HCT-15
HL-60 = test system: HL-60
MCF7 = test system: MCF7
MDA-MB-435 = test system: MDA-MB-435
NCI-H522 = test system: NCI-H522
NCI/ADR-RES = test system: NCI/ADR-RES
OVCAR-8 = test system: OVCAR-8
PC-3 = test system: PC-3
RPMI-8226 = test system: RPMI-8226
SK-MEL-2 = test system: SK-MEL-2
SK-MEL-5 = test system: SK-MEL-5
SK-OV-3 = test system: SK-OV-3
SW-620 = test system: SW-620
T47D = test system: T47D
U-251 = test system: U-251
UACC-62 = test system: UACC-62
UO-31 = test system: UO-31

SMILES: C=C(Cl)c1c(OC)cccc1OCc1ccccc1
- GI50 (A549): > 100 µM (inactive)
- GI50 (COLO 205): 98.2 µM (inactive)
- GI50 (DU-145): > 100 µM (inactive)
- GI50 (HCT-15): 92.7 µM
- GI50 (HL-60): 29.2 µM (inactive)
- GI50 (MCF7): 58.5 µM (inactive)
- GI50 (MDA-MB-435): 37 µM (inactive)
- GI50 (NCI-H522): 44.6 µM (inactive)
- GI50 (NCI/ADR-RES): > 100 µM (inactive)
- GI50 (OVCAR-8): > 100 µM (inactive)
- GI50 (PC-3): > 100 µM (inactive)
- GI50 (RPMI-8226): 43 µM (inactive)
- GI50 (SK-MEL-2): > 100 µM (inactive)
- GI50 (SK-MEL-5): 34.4 µM (inactive)
- GI50 (SK-OV-3): > 100 µM (inactive)
- GI50 (SW-620): 71 µM (inactive)
- GI50 (T47D): 25.1 µM (inactive)
- GI50 (U-251): > 100 µM (inactive)
- GI50 (UACC-62): 30.4 µM (inactive)
- GI50 (UO-31): 55 µM (inactive)

SMILES: O=[N+]([O-])c1ccc(CSc2c3ccccc3nc3ccccc23)cc1
- GI50 (A549): 23.9 µM (inactive)
- GI50 (COLO 205): 3.13 µM (inactive)
- GI50 (DU-145): 2.3 µM (inactive)
- GI50 (HCT-15): 3.91 µM
- GI50 (HL-60): 2.52 µM (inactive)
- GI50 (MCF7): 2.51 µM (inactive)
- GI50 (MDA-MB-435): 4.94 µM (inactive)
- GI50 (NCI-H522): 1.9 µM (inactive)
- GI50 (NCI/ADR-RES): 18 µM (inactive)
- GI50 (OVCAR-8): 3.33 µM (inactive)
- GI50 (PC-3): 7.43 µM (inactive)
- GI50 (RPMI-8226): 2.85 µM (inactive)
- GI50 (SK-MEL-2): 16.9 µM (inactive)
- GI50 (SK-MEL-5): 16.7 µM (inactive)
- GI50 (SK-OV-3): 22 µM (inactive)
- GI50 (SW-620): 2.88 µM (inactive)
- GI50 (T47D): 1.85 µM (inactive)
- GI50 (U-251): 7.28 µM (inactive)
- GI50 (UACC-62): 14.4 µM (inactive)
- GI50 (UO-31): 5.62 µM (inactive)

SMILES: NC(=O)ON=C1CCN(Cc2ccccc2)CC1
- GI50 (A549): > 100 µM (inactive)
- GI50 (COLO 205): > 100 µM (inactive)
- GI50 (DU-145): > 100 µM (inactive)
- GI50 (HCT-15): > 100 µM
- GI50 (HL-60): > 100 µM (inactive)
- GI50 (MCF7): > 100 µM (inactive)
- GI50 (MDA-MB-435): > 100 µM (inactive)
- GI50 (NCI-H522): > 100 µM (inactive)
- GI50 (NCI/ADR-RES): > 100 µM (inactive)
- GI50 (OVCAR-8): > 100 µM (inactive)
- GI50 (PC-3): > 100 µM (inactive)
- GI50 (RPMI-8226): > 100 µM (inactive)
- GI50 (SK-MEL-2): > 100 µM (inactive)
- GI50 (SK-MEL-5): > 100 µM (inactive)
- GI50 (SK-OV-3): > 100 µM (inactive)
- GI50 (SW-620): > 100 µM (inactive)
- GI50 (T47D): > 100 µM (inactive)
- GI50 (U-251): > 100 µM (inactive)
- GI50 (UACC-62): > 100 µM (inactive)
- GI50 (UO-31): > 100 µM (inactive)

SMILES: O=C(CCN1CCCCC1)Nc1ccc2sc3ccccc3c(=O)c2n1
- GI50 (A549): 15 µM (inactive)
- GI50 (COLO 205): 8.32 µM (inactive)
- GI50 (DU-145): 18.4 µM (inactive)
- GI50 (HCT-15): 15.1 µM
- GI50 (HL-60): 3.89 µM (inactive)
- GI50 (MCF7): 15.9 µM (inactive)
- GI50 (MDA-MB-435): 13.1 µM (inactive)
- GI50 (NCI-H522): 12 µM (inactive)
- GI50 (NCI/ADR-RES): 7.67 µM (inactive)
- GI50 (OVCAR-8): > 10 µM (inactive)
- GI50 (PC-3): 11.9 µM (inactive)
- GI50 (RPMI-8226): 6.04 µM (inactive)
- GI50 (SK-MEL-2): > 10 µM (inactive)
- GI50 (SK-MEL-5): 21.6 µM (inactive)
- GI50 (SK-OV-3): 23.2 µM (inactive)
- GI50 (SW-620): 8.3 µM (inactive)
- GI50 (T47D): 28.4 µM (inactive)
- GI50 (U-251): 14.6 µM (inactive)
- GI50 (UACC-62): 14.5 µM (inactive)
- GI50 (UO-31): 9.79 µM (inactive)
